From US20140113898A1, “BISARYLSULFONE AND DIALKYLARYLSULFONE COMPOUNDS AS CALCIUM CHANNEL BLOCKERS” (Zalicus Pharmaceuticals Ltd., priority 2010, published 2014)
Like-named read-outs stand apart in the source and are kept apart here.

How the values were obtained:
Type in all cases: cell-based
CaV3.1 = target: T1, CaV3.1 (Homo sapiens, UniProt O43497); test: High-throughput CaV3.1 T-type FLIPR fluorescent assay; settings: Fluo-4 FLIPR
T1 construct: expressed in transfected cells; host or cells: unnamed doxycycline-inducible cell line
Summary of the method: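 Doxycycline-induced CaV3.1 cells were loaded with Fluo-4 at 29 °C and pre-incubated with compound for 20 min at 29 °C in low-Ca2+ buffer (0.001 mM CaCl2, pH 7.2). Calcium entry was triggered by buffer containing 6 mM CaCl2, and Fluo-4 fluorescence was recorded on FLIPR for 3 min. IC50 came from logistic fits.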

CaV3.2 = target: T2, CaV3.2 (Homo sapiens, UniProt O95180); test: High-throughput CaV3.2/Kir2.3 T-type FLIPR fluorescent assay; settings: Fluo-4 FLIPR, closed or inactivated state not stated
T2 construct: expressed in transfected cells; host or cells: unnamed doxycycline-inducible cell line
Summary of the method: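 Doxycycline-induced cells loaded with Fluo-4, preincubated 20 min at 29°C with compound in 2 mM KCl (closed-state) or 7.6 mM KCl (inactivated-state) buffer, pH 7.4. Calcium entry triggered by 12 mM or 14.5 mM KCl respectively; fluorescence read 3 min by FLIPR, IC50 from logistic fit.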

CaV2.2 = target: T3, CaV2.2 (Homo sapiens, UniProt Q00975); test: High-throughput CaV2.2/Kir2.3 FLIPR fluorescent assay; settings: Fluo-4 FLIPR, closed or inactivated state not stated, read-out: FLIPR data CaV2.2
T3 construct: expressed in transfected cells; host or cells: unnamed doxycycline-inducible cell line
T3 sequence (Q00975 whole entry): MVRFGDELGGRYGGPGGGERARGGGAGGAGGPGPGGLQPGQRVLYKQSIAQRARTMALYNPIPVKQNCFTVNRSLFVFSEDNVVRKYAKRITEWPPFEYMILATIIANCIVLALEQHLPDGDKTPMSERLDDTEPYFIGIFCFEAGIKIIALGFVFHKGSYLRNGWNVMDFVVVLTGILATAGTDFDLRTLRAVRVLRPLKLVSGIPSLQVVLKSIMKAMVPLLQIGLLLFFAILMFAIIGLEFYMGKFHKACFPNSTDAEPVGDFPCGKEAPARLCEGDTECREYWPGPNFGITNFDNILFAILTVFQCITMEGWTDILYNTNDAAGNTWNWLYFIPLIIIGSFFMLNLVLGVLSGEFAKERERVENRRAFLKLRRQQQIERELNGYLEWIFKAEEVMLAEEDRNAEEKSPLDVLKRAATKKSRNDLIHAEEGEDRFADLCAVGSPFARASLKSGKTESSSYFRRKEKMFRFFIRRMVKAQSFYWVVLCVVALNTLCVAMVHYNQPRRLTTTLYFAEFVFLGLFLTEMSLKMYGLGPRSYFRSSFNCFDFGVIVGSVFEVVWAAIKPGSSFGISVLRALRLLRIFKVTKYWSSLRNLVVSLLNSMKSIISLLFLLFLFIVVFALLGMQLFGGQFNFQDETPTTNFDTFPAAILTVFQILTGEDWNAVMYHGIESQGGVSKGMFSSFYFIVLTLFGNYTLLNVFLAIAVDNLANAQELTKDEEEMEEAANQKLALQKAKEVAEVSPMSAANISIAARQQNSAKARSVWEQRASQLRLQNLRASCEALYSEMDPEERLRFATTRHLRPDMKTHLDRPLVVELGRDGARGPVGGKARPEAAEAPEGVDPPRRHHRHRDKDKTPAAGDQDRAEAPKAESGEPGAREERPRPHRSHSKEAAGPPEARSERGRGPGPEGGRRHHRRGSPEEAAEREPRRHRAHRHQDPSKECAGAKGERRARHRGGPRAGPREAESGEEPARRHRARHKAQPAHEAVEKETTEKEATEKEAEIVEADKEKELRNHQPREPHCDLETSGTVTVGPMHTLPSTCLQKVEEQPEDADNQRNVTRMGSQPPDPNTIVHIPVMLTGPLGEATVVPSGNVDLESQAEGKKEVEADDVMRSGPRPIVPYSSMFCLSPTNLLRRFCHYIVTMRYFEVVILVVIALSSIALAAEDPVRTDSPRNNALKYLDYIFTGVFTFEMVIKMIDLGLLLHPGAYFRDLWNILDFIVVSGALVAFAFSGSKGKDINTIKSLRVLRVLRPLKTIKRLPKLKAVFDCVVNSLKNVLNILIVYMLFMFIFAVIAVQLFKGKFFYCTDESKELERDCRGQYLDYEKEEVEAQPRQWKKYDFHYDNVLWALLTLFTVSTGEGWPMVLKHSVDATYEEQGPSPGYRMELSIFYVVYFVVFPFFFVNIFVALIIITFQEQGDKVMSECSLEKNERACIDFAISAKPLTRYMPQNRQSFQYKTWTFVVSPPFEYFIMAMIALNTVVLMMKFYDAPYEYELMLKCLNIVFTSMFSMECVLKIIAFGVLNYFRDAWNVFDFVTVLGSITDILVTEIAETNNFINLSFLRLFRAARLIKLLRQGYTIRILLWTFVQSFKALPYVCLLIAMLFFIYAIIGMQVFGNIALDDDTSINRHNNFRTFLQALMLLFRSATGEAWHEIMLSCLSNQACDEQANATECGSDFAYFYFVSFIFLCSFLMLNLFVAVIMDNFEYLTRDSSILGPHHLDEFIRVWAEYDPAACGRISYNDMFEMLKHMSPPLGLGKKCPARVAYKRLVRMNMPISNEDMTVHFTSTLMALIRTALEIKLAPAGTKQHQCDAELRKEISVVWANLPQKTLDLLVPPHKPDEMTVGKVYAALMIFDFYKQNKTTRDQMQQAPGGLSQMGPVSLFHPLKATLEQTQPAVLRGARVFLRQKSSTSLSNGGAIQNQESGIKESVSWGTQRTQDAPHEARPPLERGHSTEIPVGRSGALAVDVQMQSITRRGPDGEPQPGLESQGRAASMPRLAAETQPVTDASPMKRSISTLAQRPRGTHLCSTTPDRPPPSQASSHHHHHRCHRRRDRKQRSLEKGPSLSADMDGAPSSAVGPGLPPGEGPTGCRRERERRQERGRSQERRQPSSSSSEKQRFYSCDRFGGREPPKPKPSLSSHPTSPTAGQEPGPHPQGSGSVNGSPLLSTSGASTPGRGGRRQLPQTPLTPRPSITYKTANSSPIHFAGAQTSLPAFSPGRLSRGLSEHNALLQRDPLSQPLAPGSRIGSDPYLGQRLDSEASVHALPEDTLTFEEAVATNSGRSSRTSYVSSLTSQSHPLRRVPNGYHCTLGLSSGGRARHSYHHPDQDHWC
T3 sequence (P54284 whole entry partner): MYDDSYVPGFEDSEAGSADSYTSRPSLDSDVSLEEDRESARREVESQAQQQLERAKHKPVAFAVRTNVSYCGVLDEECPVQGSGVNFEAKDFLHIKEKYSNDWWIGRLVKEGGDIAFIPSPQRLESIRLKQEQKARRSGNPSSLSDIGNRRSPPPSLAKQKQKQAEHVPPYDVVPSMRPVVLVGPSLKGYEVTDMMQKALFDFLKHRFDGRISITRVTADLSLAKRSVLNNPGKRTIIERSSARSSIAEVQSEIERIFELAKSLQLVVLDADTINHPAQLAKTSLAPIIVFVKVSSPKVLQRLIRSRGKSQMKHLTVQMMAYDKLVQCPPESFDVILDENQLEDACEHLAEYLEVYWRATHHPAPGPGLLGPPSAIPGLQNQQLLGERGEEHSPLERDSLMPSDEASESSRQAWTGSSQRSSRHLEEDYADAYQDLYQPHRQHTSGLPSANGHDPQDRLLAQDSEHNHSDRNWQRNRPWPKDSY
T3 sequence (P54289 25-946 partner limits assumed): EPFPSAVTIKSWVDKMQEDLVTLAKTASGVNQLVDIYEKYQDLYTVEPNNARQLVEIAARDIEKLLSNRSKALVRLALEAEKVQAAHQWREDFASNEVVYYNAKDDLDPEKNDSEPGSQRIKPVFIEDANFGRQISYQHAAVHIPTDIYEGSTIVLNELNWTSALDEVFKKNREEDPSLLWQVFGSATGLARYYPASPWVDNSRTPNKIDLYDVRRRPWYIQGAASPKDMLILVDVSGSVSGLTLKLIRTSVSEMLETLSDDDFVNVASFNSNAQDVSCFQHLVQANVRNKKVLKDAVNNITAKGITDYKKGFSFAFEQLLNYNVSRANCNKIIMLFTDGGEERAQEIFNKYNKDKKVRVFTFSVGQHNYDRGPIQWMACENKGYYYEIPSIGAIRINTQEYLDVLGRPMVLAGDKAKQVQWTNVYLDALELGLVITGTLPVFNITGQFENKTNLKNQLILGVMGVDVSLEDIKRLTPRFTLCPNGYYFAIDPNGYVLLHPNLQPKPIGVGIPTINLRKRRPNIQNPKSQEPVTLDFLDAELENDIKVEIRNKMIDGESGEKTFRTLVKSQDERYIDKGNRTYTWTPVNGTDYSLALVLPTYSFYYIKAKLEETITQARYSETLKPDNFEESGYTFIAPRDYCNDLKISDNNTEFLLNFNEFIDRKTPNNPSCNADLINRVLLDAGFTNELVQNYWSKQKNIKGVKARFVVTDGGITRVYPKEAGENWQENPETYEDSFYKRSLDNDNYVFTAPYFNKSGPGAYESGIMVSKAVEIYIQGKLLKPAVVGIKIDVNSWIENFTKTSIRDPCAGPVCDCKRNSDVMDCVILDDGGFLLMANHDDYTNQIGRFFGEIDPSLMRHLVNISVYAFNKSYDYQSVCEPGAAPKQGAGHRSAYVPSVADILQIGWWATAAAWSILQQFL
T3 sequence (P54289 947-1103 partner limits assumed): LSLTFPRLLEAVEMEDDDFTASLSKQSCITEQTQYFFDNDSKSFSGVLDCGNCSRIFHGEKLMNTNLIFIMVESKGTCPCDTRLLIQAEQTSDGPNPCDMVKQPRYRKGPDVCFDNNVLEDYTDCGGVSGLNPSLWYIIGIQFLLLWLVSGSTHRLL
Summary of the method: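 Doxycycline-induced cells moved to 29 °C on assay day and were loaded with 4.4 μM Fluo-4. They were held in 2 mM KCl (closed state) or 12.5 mM KCl (inactivated state) buffer, pH 7.4, then depolarized with 130 mM KCl. Fluorescence was read 3 min on FLIPR, and IC50 was obtained from logistic fits.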

| Structure (SMILES) | IC50 (CaV3.1; Table 4) [nM] | IC50 (CaV3.2; Table 4) [nM] | IC50 (CaV2.2; Table 4) [nM] | IC50 (CaV3.1; Table 5) [nM] | IC50 (CaV3.2; Table 5) [nM] | IC50 (CaV2.2; Table 5) [nM] |
| --- | --- | --- | --- | --- | --- | --- |
| O=C(NCc1cccc(S(=O)(=O)c2cccc(C(F)(F)F)c2)c1)c1ccnc(C(F)(F)F)n1 [Compound 27, 2-(trifluoromethyl)-N-(3-((3-(trifluoromethyl)phenyl)sulfonyl)benzyl)pyrimidine-4-carboxamide] | 3360 | 2450 | 310 |  |  |  |
| O=C(NCc1ccc(S(=O)(=O)c2cccc(C(F)(F)F)c2)cc1)[C@@H]1C[C@@H](C2CCCCC2)CN1 [Compound 72, (2S,4S)-4-cyclohexyl-N-(4-((3-(trifluoromethyl)phenyl)sulfonyl)benzyl)pyrrolidine-2-carboxamide] | 8900 | 2320 | 760 |  |  |  |
| CS(=O)(=O)c1cc(C(=O)NCc2ccccc2S(=O)(=O)c2cccc(C(F)(F)F)c2)cc(C(F)(F)F)n1 [Compound 42, 2-(methylsulfonyl)-6-(trifluoromethyl)-N-(2-((3-(trifluoromethyl)phenyl)sulfonyl)benzyl)isonicotinamide] | 2890 | 3240 | 640 |  |  |  |
| O=C(NCc1ccc(S(=O)(=O)c2cccc(C(F)(F)F)c2)cn1)c1ccc(F)c(Cl)c1 [Compound 104, 3-chloro-4-fluoro-N-((5-((3-(trifluoromethyl)phenyl)sulfonyl)pyridin-2-yl)methyl)benzamide] | 1540 | 880 | 600 |  |  |  |
| CC(C)S(=O)(=O)c1cc(C(F)(F)F)cnc1C(=O)NCc1cccc(S(=O)(=O)c2cccc(C(F)(F)F)c2)c1 [Compound 25, 3-(isopropylsulfonyl)-5-(trifluoromethyl)-N-(3-((3-(trifluoromethyl)phenyl)sulfonyl)benzyl)picolinamide] | 1580 | 1740 | 170 |  |  |  |
| CC(C)(C(=O)N1CCC(c2cccc(Cl)c2)CC1)S(=O)(=O)c1cccc(C(F)(F)F)c1 [Compound 133, 1-(4-(3-chlorophenyl)piperidin-1-yl)-2-methyl-2-((3-(trifluoromethyl)phenyl)sulfonyl)propan-1-one] |  |  |  | 2160 | 4960 | 1160 |
| O=C(NCc1cccc(S(=O)(=O)c2cccc(C(F)(F)F)c2)c1)c1ccnc(C(F)(F)F)c1 [Compound 31, 2-(trifluoromethyl)-N-(3-((3-(trifluoromethyl)phenyl)sulfonyl)benzyl)isonicotinamide] | 1750 | 730 | 390 |  |  |  |
| COc1cc(C(=O)NCc2cccc(S(=O)(=O)c3cccc(C(F)(F)F)c3)c2)cc(Cl)n1 [Compound 30] | 1110 | 510 | 310 |  |  |  |
| Cn1nc(C(F)(F)F)cc1C(=O)NCc1cccc(S(=O)(=O)c2cccc(C(F)(F)F)c2)c1 [Compound 22, 1-methyl-3-(trifluoromethyl)-N-(3-((3-(trifluoromethyl)phenyl)sulfonyl)benzyl)-1H-pyrazole-5-carboxamide] | 3010 | 640 | 220 |  |  |  |
| O=C(NCc1ccc(S(=O)(=O)c2cccc(C(F)(F)F)c2)cn1)[C@H]1C[C@@H](C2CCCCC2)CN1 [Compound 107, (2R,4S)-4-cyclohexyl-N-((5-((3-(trifluoromethyl)phenyl)sulfonyl)pyridin-2-yl)methyl)pyrrolidine-2-carboxamide] | 6980 | 2090 | 450 |  |  |  |
| O=C(NCc1cccc(S(=O)(=O)c2cccc(C(F)(F)F)c2)c1)c1ccc(C(F)(F)F)nc1 [Compound 19, 6-(trifluoromethyl)-N-(3-((3-(trifluoromethyl)phenyl)sulfonyl)benzyl)nicotinamide] | 2100 | 970 | 490 |  |  |  |
| O=C(NCc1ccc(S(=O)(=O)c2cccc(C(F)(F)F)c2)cc1)c1ccc(C(F)(F)F)cn1 [Compound 4, 5-(trifluoromethy)-N-(4-((3-(trifluoromethyl)phenyl)sulfonyl)benzyl)picolinamide] | 1480 | 380 | 450 |  |  |  |
| O=C(NCc1ccc(S(=O)(=O)c2cccc(C(F)(F)F)c2)cc1)c1ccnc(C(F)(F)F)n1 [Compound 9, 2-(trifluoromethyl)-N-(4-((3-(trifluoromethyl)phenyl)sulfonyl)benzyl)pyrimidine-4-carboxamide] | 2850 | 1690 | 490 |  |  |  |
| CS(=O)(=O)c1cc(C(=O)NCc2cccc(S(=O)(=O)c3cccc(C(F)(F)F)c3)c2)cc(C(F)(F)F)n1 [Compound 23, 2-(methylsulfonyl)-6-(trifluoromethyl)-N-(3-((3-(trifluoromethyl)phenyl)sulfonyl)benzyl)isonicotinamide] | 2050 | 570 | 490 |  |  |  |
